Source: US9598423B2 (BRISTOL-MYERS SQUIBB COMPANY, priority 2013, dated 2017)

Assays:
CK1ε = CK1ε (Homo sapiens (Human), UniProt P49674); test: CK1ε kinase assay (Caliper LABCHIP electrophoretic separation of fluoresceinated peptide substrate and product); format: biochemical; settings: 200 pM CK1ε, 50 μM ATP, 1.5 μM peptide substrate, 22 hours at room temperature; read-out: CK1ε (IC50)
Procedure, shortened: (§1)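 Compounds, taken from 10 mM DMSO stocks, are titrated at eleven concentrations. Kinase reactions proceed for 22 hours at room temperature and are quenched with EDTA. Substrate and product are resolved electrophoretically, and IC50 values are fitted by non-linear regression.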

CK1δ = CK1δ (Homo sapiens (Human), UniProt P48730); test: CK1δ kinase assay (Caliper LABCHIP electrophoretic separation of fluoresceinated peptide substrate and product); format: biochemical; settings: 200 pM CK1δ, 50 μM ATP, 1.5 μM peptide substrate, 22 hours at room temperature; read-out: CK1δ (IC50)
Procedure, shortened: as §1

CK1δ, sequence (P48730 whole entry): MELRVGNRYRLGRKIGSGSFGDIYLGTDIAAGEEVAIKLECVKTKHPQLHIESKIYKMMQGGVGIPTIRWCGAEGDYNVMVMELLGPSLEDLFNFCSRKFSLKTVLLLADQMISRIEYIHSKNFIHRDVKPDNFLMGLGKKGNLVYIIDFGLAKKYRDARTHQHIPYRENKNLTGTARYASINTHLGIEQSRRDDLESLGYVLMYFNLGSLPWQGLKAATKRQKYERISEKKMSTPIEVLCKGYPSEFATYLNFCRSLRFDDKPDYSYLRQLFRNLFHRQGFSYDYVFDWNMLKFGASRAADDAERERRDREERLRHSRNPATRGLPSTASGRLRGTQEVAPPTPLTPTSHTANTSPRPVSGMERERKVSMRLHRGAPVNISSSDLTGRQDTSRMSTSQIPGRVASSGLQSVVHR
CK1ε, sequence (P49674 whole entry): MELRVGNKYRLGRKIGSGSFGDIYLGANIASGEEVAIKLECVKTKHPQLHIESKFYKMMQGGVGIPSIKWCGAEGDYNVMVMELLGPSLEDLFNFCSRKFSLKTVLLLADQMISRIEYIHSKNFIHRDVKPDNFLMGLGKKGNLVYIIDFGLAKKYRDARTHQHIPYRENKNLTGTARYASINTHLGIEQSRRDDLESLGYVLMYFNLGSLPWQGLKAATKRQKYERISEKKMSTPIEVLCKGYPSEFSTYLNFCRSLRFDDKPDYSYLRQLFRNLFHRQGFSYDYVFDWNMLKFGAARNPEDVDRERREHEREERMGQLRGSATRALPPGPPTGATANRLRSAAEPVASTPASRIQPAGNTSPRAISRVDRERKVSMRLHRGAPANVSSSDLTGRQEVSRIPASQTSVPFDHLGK

## N#Cc1ccc(NC(=O)N2CCn3nc(-c4ccc(F)c(Cl)c4)c(C(N)=O)c3C2)cc1C1CC1 [Compound A50, 2-(3-Chloro-4-fluorophenyl)-N^5-(4-cyano-3-cyclopropylphenyl)-6,7-dihydropyrazolo[1,5-a]pyrazine-3,5(4H)-dicarboxamide]
CK1ε
  IC50: 0.01 to 10 nM
CK1δ
  IC50: 0.01 to 10 nM

## Cc1cc(-c2nn3c(c2C(N)=O)CN(C(=O)Nc2ccc(C#N)c(F)c2)CC3)ccc1F [Compound 243, N^5-(4-Cyano-3-fluorophenyl)-2-(4-fluoro-3-methylphenyl)-6,7-dihydropyrazolo[1,5-a] pyrazine-3,5(4H)-dicarboxamide]
CK1ε
  IC50: 0.01 to 10 nM
CK1δ
  IC50: 0.01 to 10 nM

## NC(=O)c1c(-c2cccc(F)c2)nn2c1CN(C(=O)Nc1ccc(Cl)c(Cl)c1)CC2 [Compound 49, N^5-(3,4-Dichlorophenyl)-2-(3-fluorophenyl)-6,7-dihydropyrazolo[1,5-a]pyrazine-3,5(4H)-dicarboxamide]
CK1ε
  IC50: 0.01 to 10 nM
CK1δ
  IC50: 0.01 to 10 nM

## Cc1cc(Cl)cc(-c2nn3c(c2C(N)=O)CN(C(=O)Nc2ccc(C#N)c(Cl)c2)CC3)c1 [Compound A63, N^5-(3-Chloro-4-cyanophenyl)-2-(3-chloro-5-methylphenyl)-6,7-dihydropyrazolo[1,5-a]pyrazine-3,5(4H)-dicarboxamide]
CK1ε
  IC50: 0.01 to 10 nM
CK1δ
  IC50: 0.01 to 10 nM

## N#Cc1ccc(NC(=O)N2CCn3nc(-c4cccc(F)c4)c(C(N)=O)c3C2)cc1C(F)(F)F [Compound 38, N^5-(4-Cyano-3-(trifluoromethyl)phenyl)-2-(3-fluorophenyl)-6,7-dihydropyrazolo[1,5-a]pyrazine-3,5(4H)-dicarboxamide]
CK1ε
  IC50: 0.01 to 10 nM
CK1δ
  IC50: 0.01 to 10 nM

## NC(=O)c1c(-c2ccc(F)c(Cl)c2)nn2c1CN(C(=O)Nc1ccc(Cl)c(Cl)c1)CC2 [Compound 182, 2-(3-Chloro-4-fluorophenyl)-N^5-(3,4-dichlorophenyl)-6,7-dihydropyrazolo[1,5-a] pyrazine-3,5(4H)-dicarboxamide]
CK1ε
  IC50: 0.01 to 10 nM
CK1δ
  IC50: 0.01 to 10 nM

## NC(=O)c1c(-c2cccc(Cl)c2)nn2c1CN(C(=O)Nc1cc(Cl)cc(Cl)c1)CC2CO (stereo not shown) [Compound A4, 2-(3-Chlorophenyl)-N^5-(3,5-dichlorophenyl)-7-(hydroxymethyl)-6,7-dihydropyrazolo[1,5-a]pyrazine-3,5(4H)-dicarboxamide]
CK1ε
  IC50: 0.01 to 10 nM
CK1δ
  IC50: 0.01 to 10 nM

## N#Cc1ccc(NC(=O)N2Cc3c(C(N)=O)c(-c4cccc(F)c4)nn3C3(CC3)C2)cc1 [Compound A87, N^5′-(4-Cyanophenyl)-2′-(3-fluorophenyl)-4′H-spiro[cyclopropane-1,7′-pyrazolo[1,5-a]pyrazine]-3′,5′(6′H)-dicarboxamide]
CK1ε
  IC50: 0.01 to 10 nM
CK1δ
  IC50: 0.01 to 10 nM

## Cc1ccc(-c2nn3c(c2C(N)=O)CN(C(=O)Nc2ccc4c(c2)CS(=O)(=O)C4)CC3)cc1Cl [Compound 251, 2-(3-Chloro-4-methylphenyl)-N^5-(2,2-dioxido-1,3-dihydrobenzo[c]thiophen-5-yl)-6,7-dihydropyrazolo[1,5-a] pyrazine-3,5(4H)-dicarboxamide]
CK1ε
  IC50: 0.01 to 10 nM
CK1δ
  IC50: 0.01 to 10 nM

## NC(=O)c1c(-c2ccc(F)c(Cl)c2)nn2c1CN(C(=O)Nc1ccc(F)c(C(F)(F)F)c1)CC2 [Compound 190, 2-(3-Chloro-4-fluorophenyl)-N^5-(4-fluoro-3-(trifluoromethyl)phenyl)-6,7-dihydropyrazolo[1,5-a] pyrazine-3,5(4H)-dicarboxamide]
CK1ε
  IC50: 0.01 to 10 nM
CK1δ
  IC50: 0.01 to 10 nM

## N#Cc1ccc(NC(=O)N2Cc3c(C(N)=O)c(-c4ccc(Cl)c(Cl)c4)nn3[C@H]3COC[C@H]32)cc1 [Compound 349, (5aS,8aR)-N^5-(4-Cyanophenyl)-2-(3,4-dichlorophenyl)-5a,6,8,8a-tetrahydrofuro[3,4-e]pyrazolo[1,5-a]pyrazine-3,5(4H)-dicarboxamide]
CK1ε
  IC50: 0.01 to 10 nM
CK1δ
  IC50: 0.01 to 10 nM

## COc1cc(NC(=O)N2CCn3nc(-c4cccc(Cl)c4)c(C(N)=O)c3C2)ccc1C#N [Compound A40, 2-(3-Chlorophenyl)-N^5-(4-cyano-3-methoxyphenyl)-6,7-dihydropyrazolo[1,5-a]pyrazine-3,5(4H)-dicarboxamide]
CK1ε
  IC50: 0.01 to 10 nM
CK1δ
  IC50: 0.01 to 10 nM

## CC1Cn2nc(-c3cccc(Cl)c3)c(C(N)=O)c2CN1C(=O)Nc1ccc(C#N)cc1 (single isomer, unassigned) [Compound 331, 2-(3-Chlorophenyl)-N^5-(4-cyanophenyl)-6-methyl-6,7-dihydropyrazolo[1,5-a]pyrazine-3,5(4H)-dicarboxamide]
CK1ε
  IC50: 0.01 to 10 nM
CK1δ
  IC50: 0.01 to 10 nM

## CC(=O)N1CC2(C1)CN(C(=O)Nc1ccc(C#N)cc1)Cc1c(C(N)=O)c(-c3ccc(F)c(Cl)c3)nn12 [Compound A89, 1-Acetyl-2′-(3-chloro-4-fluorophenyl)-N^5′-(4-cyanophenyl)-4′H-spiro[azetidine-3,7′-pyrazolo[1,5-a]pyrazine]-3′,5′(6′H)-dicarboxamide]
CK1ε
  IC50: 0.01 to 10 nM
CK1δ
  IC50: 0.01 to 10 nM

## CC(C)(C)NC(=O)N1CCn2nc(-c3cncc(Cl)c3)c(C(N)=O)c2C1 [Compound 148, N^5-(tert-Butyl)-2-(5-chloropyridin-3-yl)-6,7-dihydropyrazolo[1,5-a]pyrazine-3,5(4H)-dicarboxamide]
CK1ε
  IC50: 0.01 to 10 nM
CK1δ
  IC50: 0.01 to 10 nM

## NC(=O)c1c(-c2cccc(Cl)c2)nn2c1CN(C(=O)Nc1cccc(F)c1)CC2 [Compound 167, 2-(3-Chlorophenyl)-N^5-(3-fluorophenyl)-6,7-dihydropyrazolo[1,5-a] pyrazine-3,5(4H)-dicarboxamide]
CK1ε
  IC50: 0.01 to 10 nM
CK1δ
  IC50: 0.01 to 10 nM

## Cc1cc(NC(=O)N2Cc3c(C(N)=O)c(-c4ccc(F)c(Cl)c4)nn3CC23CC3)ccc1C#N [Compound 344, 2′-(3-Chloro-4-fluorophenyl)-N^5′-(4-cyano-3-methylphenyl)-4′H-spiro[cyclopropane-1,6′-pyrazolo[1,5-a]pyrazine]-3′,5′(7′H)-dicarboxamide]
CK1ε
  IC50: 0.01 to 10 nM
CK1δ
  IC50: 0.01 to 10 nM
